How the values were obtained:
CHO-K1 cells = experiment: Flow cytometry binding to PD-L1neg parental CHO cells; settings: FACS
Source text: (§1) FIGS. 3A-F show the characterization of the binding capacity of the anti-PD-L1 RUSH antibody released through the biotin-activated RUSH system (FIGS. 3A, 3C, and FIG. 3E) Schematic representation of the antibody binding to PD-L1^pos cells and detection by flow cytometry. […] Dark grey, binding to PD-L1^pos CHO cells (CHO-PDL1); light grey, binding to PD-L1^neg parental CHO cells (CHO-K1). Antibody binding is detected by means of an indirect immunofluorescence assay with a secondary anti-Fc APC conjugated or by direct measurement of GFP fluorescence.
(§2) Human osteosarcoma U2OS cells obtained from the Kroemer lab were maintained at 37° C. in a humidified incubator with 5% CO2 in Dulbecco's Modified Eagle Medium (DMEM) supplemented with 10% Fetal Bovine Serum (FBS), 1% penicillin-streptomycin and 1% HEPES (Gibco, Carlsbad, CA). CHO-K1 (CCL-61) cells were obtained from the ATCC and cultured at 37° C. in a humidified incubator with 5% CO2 in Nutrient Mixture F-12 Ham's (Sigma, Saint-Louis, MO) supplemented with 10% FBS and 2 mM L-Glutamine (Gibco). PD-L1-expressing CHO cells were cultured in similar conditions in medium supplemented with 7.5 μg/mL puromycin (Gibco). The Prestwick, the BML-2840 ICCB Known Bioactives and the Autophagy Compounds libraries were purchased from Prestwick Chemicals (Illkirch, France), Enzo Life Sciences (Farmingdale, NY), and TargetMol (Boston, MA), respectively. […]

[1] = tested on: human PD-L1 (CHO-PDL1 cells); experiment: Flow cytometry binding to PD-L1-expressing CHO cells; settings: FACS
Source text: as §1, §2

[2] = tested on: biotin-induced antibody release, U2OS clone #7 cells; experiment: High-throughput RUSH screen: biotin-induced cytoplasmic GFP signal decay (antibody release), U2OS clone #7; format: cell-based, human
Experimental: FIGS. 4A-4C show the high-throughput screening of chemical compound libraries for the identification of modulators of protein secretion. […] U2OS clone #7 is plated in 384-well plates and incubated for 24 h before treatment with each compound of the Prestwick, ICCB Known Bioactives, or Autophagy Compound Library at 2 concentrations, low and high (with a 10-fold difference). […] The results of the Prestwick library screening at the low drug concentration are plotted. Brefeldin A was used as a positive control of the inhibition of secretion. The compounds causing a cytoplasmic GFP intensity below that observed for biotin-only treated cells are potential enhancers of protein secretion.
U2OS cells were transfected with the streptavidin-KDEL plasmid using Lipofectamine 2000 (Thermo Fisher Scientific) and selected in medium supplemented with G418 (400 μg/mL, Gibco-Invitrogen) for 2 weeks. Limiting dilution in 96-well plates was used for single cell isolation from the selected pool. Clones were amplified and selected based on streptavidin immunofluorescence. Clone #BD6 showing the highest streptavidin expression was further expanded in medium supplemented with G418 (200 μg/mL) and transfected with the anti-PD-L1 IgG RUSH plasmid using Lipofectamine 2000 and selected in medium supplemented with G418 (200 μg/mL) and hygromycin (100 μg/mL, Santa Cruz Biotechnology) for 2 weeks. Limiting dilution in 96-well plates was used for single cell isolation from clone #BD6-derived selected pool. Clones were amplified and selected based on GFP fluorescence and clone #7 was selected for further characterization and screening campaigns.
U2OS clone #7 cells were seeded in black 384-well imaging plates (Greiner bio one), 2,000 cells/well, and incubated for 24 h at 37° C. in a humidified incubator with 5% CO2. Cells were treated on the next day with the compounds from either the Prestwick library at […], the ICCB Known Bioactives library at 1/100^e or 1/1000^e, or the autophagy compound library at 10 μM or 1 μM for 4 h. […] Cells were then fixed as described above and processed for subsequent automated image acquisition using a robot-assisted IXM XL BioImager (Molecular Devices, Sunnyvale, CA, USA) equipped with a Sola light source (Lumencor, Beaverton, OR, USA), adapted excitation and emission filters (Semrock) a 16-bit monochrome sCMOS PCO.edge 5.5 camera (PCO, Kelheim, Germany). A 20× PlanAPO objective (Nikon, Tokyo, Japan) was used to acquire a minimum of 4 view fields in each well. The acquired images were processed using the open-access R software (https://www.r-project.org) with the help of freely available packages EBImage (available on the Bioconductor repository https://www.bioconductor.org), and RBioFormats (https://github.com/aoles/RBioFormats), and the custom packages MetaxpR (https://github.com/asauvat/MetaxpR) and MorphR (https://github.com/kroemerlab/MorphR). Nuclei were first detected using Hoechst 33342 signal and used as a marker to detect cytoplasmic areas based on GFP signal, allowing for the evaluation of cytoplasmic GFP intensity. Data were thereafter extracted and statistically evaluated using R (https://www.r-project.org). Data were normalized using negative and positive controls, reduced and transformed into a Z-score. The experiments were repeated manually at low scale with selected drugs to confirm their effects on secretion, in this second set of assays, U2OS clone #7 cells incubated with secretion inhibitors were fixed and stained with Hoechst as described above for imaging and viability determination based on cell counts.
We next sought to use clone #7 in screening campaigns for the identification of drugs capable of enhancing or inhibiting antibody secretion. […] Cell counting was facilitated by nuclear counterstaining with Hoechst 33324 in order to assess viability and distinguish drug effects on the secretion kinetics from direct cytotoxicity and select relevant drugs for further characterization. […]

D3/D2 receptor = settings: cited from earlier work
D1 receptors = settings: cited from earlier work
[3] = tested on: RUSH antibody release and furin processing, U2OS clone #7 cells; experiment: Western blot of cell lysates and concentrated supernatants of clone #7; format: cell-based, human; settings: 40 μM biotin, 4 h; FIG. 2C
Source text: (§3) FIGS. 2A-2F show characterization of the anti-PD-L1 antibody RUSH system. […] Molecular mass standards (in kDa) are indicated on the left in panel FIG. 2D. The structures of the proteins detected by immunoblot are indicated based on the scheme shown in FIG. 1B and include antibody heavy and light chains, GFP, SBP, and a linker with a furin cleavage site. The truncated shape at the antibody C-terminus represents linker residues left after cleavage by furin. Results are representative of at least 3 independent experiments.
U2OS clone #7 cells were seeded in T-175 flasks and kept for 24 h at 37° C. in a humidified incubator with 5% CO2. […] At the end of the incubation time, cells were harvested and lysed in RIPA buffer (Thermo Fisher Scientific) supplemented with protease and phosphatase inhibitors (Roche, Basel, Switzerland). Additionally, cell culture supernatants were collected and concentrated ~100-fold in Amicon 50 kDa filter unit (Sigma) according to the manufacturer's instructions. Cell lysate and concentrated supernatant protein concentrations were determined using the BCA™ protein assay kit (Thermo Fisher Scientific). […] The membranes were then washed 3 times for 5 min with 0.01% Tween-20/TBS and peroxidase activity was evaluated with Amersham ECL Primer Western Blotting Detection Reagent (GE Healthcare, Little Chalfont, UK) on ImageQuant™ LAS4000 (GE Healthcare).

[4] = tested on: GFP-tagged RUSH antibody trafficking, U2OS clone #7 cells; experiment: Time lapse / fluorescence microscopy of GFP-tagged antibody trafficking in clone #7; format: cell-based, human
Source text: as §3
U2OS clone #7 cells were seeded in black 96-well imaging plates (Greiner bio one, Kremsmünster, Austria). After 24 h, the medium was removed, cells were rinsed with 37° C. pre-heated PBS and fixed in PBS supplemented with 4% paraformaldehyde (PFA, Sigma) and 1 μg/mL Hoechst (Life Technologies, Carlsbad, CA, USA) for 20 min under agitation at room temperature (RT). Cells were rinsed with PBS before addition of a 5% FBS/0.3% Triton X-100/PBS permeabilizing solution for 30 min under agitation at RT. Cells were rinsed with PBS and incubated overnight under agitation at 4° C. with the primary antibody in 1% BSA/PBS. Cells were washed with PBS and incubated for 45 min under agitation at RT with the secondary antibody in 1% BSA/PBS. Finally, cells were washed, and processed for image acquisition using an IXM XL BioImager (Molecular Devices, Sunnyvale, CA).

## anti-PD-L1: reference anti-human PD-L1 antibody produced from published Atezolizumab heavy and light chains sequences
CHO-K1 cells
  binding to CHO-K1 cells: not PD-L1^neg CHO (CHO-K1) cells
[1]
  binding to CHO-PDL1 cells: binding to PD-L1^pos (CHO-PDL1)

## CCCN(CCC)CCc1cccc2c1CC(=O)N2 [ropinirole, 4-[2-(dipropylamino)ethyl]-1,3-dihydroindol-2-one]
[2]; Prestwick library, low and high concentration, 4 h compound, then 40 μM biotin 1 h
  secretion activator at both low and high concentration (consistently decreased fluorescent signal, among 20 best activators): fulfilled these criteria
[2]; screening campaigns, summary
  decrease of intracytoplasmic GFP fluorescence signal (biotin-stimulated RUSH system): consistently decreased intracytoplasmic GFP fluorescence
D3/D2 receptor
  D3/D2 receptor agonism: potent D3/D2 receptor agonist
D1 receptors
  affinity for D1 receptors: no affinity

## O=C(O)CCCC[C@@H]1SC[C@@H]2NC(=O)N[C@@H]21 [biotin]
[3]
  Western blot signal intensity in cell lysate: intensity of the signal was lower
[4]; 40 μM biotin
  time of relocation of the GFP signal to the Golgi apparatus: 40 to 120 min
  time to complete cytoplasmic GFP signal decay: ≤ 4 h
[4]; 4 h after addition of biotin, FIG. 2B
  GFP/streptavidin co-localization: lost 4 h after addition of biotin
[4]; in the presence of biotin, 4 h, FIG. 2B
  Pearson's correlation coefficient (PCC), hook / GFP-tagged antibody colocalization: 0.29
